We go through 2 molecules from ChEMBL document CHEMBL1158267, “Lycaconitine revisited: partial synthesis and neuronal nicotinic acetylcholine receptor affinities” (J Nat Prod, 1996).

By LD50 is commonly meant the dose at which mortality reaches 50%. A word on the Ki: it is a dissociation constant, usually derived from enzyme kinetics or from competition with a known ligand. Low readings indicate higher affinity, high ones lower affinity.

A short description of data set [1]: Toxicity in iv dosed mouse. It counts as organism-based. The conditions noted are these: in vivo.
Data set [2] concerns the target Neuronal acetylcholine receptor; alpha4/beta2 (Rattus norvegicus, UniProt P09483+P12390). In words: Displacement of [3H]cytisine from alpha4beta2 nAChR in rat brain membrane. The class given is cell membranes.
For data set [3], the target named is Neuronal acetylcholine receptor subunit alpha-7 (Rattus norvegicus, UniProt Q05941). In words: Displacement of [125I]alpha-bungarotoxin from alpha7 nAChR in rat brain membrane. It counts as cell membranes. (Loss of bound radioactivity is the signal in a displacement assay; it reports binding, not function.)
Chain of Neuronal acetylcholine receptor subunit alpha-7 (Q05941 whole entry): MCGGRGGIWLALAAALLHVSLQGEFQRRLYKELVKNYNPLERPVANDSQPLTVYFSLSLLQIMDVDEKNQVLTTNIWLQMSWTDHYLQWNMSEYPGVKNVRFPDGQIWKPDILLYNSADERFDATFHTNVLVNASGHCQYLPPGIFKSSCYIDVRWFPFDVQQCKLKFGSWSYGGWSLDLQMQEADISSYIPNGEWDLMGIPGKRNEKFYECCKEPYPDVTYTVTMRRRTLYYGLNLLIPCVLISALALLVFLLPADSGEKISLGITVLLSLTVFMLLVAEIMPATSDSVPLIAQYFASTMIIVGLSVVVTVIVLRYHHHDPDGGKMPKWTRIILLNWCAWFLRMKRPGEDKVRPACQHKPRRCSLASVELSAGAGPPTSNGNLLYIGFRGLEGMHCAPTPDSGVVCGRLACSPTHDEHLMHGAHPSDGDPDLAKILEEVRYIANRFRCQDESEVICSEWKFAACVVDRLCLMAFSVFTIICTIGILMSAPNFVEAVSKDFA

Chain of Neuronal acetylcholine receptor; alpha4/beta2 (P09483 whole entry): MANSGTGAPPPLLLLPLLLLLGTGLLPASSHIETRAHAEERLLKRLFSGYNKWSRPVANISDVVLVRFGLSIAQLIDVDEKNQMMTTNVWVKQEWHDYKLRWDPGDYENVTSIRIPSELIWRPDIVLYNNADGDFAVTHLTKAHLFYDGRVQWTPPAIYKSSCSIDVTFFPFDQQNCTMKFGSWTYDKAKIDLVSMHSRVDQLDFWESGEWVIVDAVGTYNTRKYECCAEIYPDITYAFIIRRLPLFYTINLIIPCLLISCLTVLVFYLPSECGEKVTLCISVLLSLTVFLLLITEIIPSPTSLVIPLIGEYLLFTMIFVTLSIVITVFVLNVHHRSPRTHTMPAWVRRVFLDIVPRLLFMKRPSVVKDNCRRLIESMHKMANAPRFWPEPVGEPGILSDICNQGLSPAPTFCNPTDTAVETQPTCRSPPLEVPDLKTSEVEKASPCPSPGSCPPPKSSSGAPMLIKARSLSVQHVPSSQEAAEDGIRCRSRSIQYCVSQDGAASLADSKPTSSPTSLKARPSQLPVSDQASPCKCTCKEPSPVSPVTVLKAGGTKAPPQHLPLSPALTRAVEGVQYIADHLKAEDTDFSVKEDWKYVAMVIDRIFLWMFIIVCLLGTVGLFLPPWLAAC
Chain of Neuronal acetylcholine receptor; alpha4/beta2 (P12390 whole entry): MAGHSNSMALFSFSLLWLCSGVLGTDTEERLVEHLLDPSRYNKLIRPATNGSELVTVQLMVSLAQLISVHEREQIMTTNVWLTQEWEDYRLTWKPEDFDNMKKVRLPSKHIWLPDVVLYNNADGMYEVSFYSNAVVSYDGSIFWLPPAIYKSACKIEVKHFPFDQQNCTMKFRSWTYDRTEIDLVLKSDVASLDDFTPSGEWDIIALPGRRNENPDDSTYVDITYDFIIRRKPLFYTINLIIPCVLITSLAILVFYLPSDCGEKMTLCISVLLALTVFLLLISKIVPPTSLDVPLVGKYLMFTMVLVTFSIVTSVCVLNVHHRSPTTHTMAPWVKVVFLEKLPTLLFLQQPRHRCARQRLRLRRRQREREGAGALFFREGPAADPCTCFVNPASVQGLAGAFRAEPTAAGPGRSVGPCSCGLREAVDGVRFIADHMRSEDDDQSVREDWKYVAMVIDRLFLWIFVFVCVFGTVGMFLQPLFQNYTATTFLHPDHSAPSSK

As for `CCN1C[C@]2(COC(=O)c3ccccc3N3C(=O)C[C@H](C)C3=O)CC[C@H](OC)[C@@]34[C@@H]5C[C@H]6[C@H](OC)[C@@H]5[C@](O)(C[C@@H]6OC)[C@](O)([C@@H](OC)[C@H]23)[C@@H]14` [METHYLLYCACONITINE], the LD50 in data set [1] was determined as 3 mg/kg.
Take `CCN1C[C@]2(COC(=O)c3ccccc3N3C(=O)CCC3=O)CC[C@H](OC)[C@]34C1[C@](O)([C@@H](OC)[C@H]23)[C@@]1(O)C[C@H](OC)[C@H]2C[C@@H]4[C@@H]1[C@H]2OC` [LYCACONITINE]: the 50% lethal dose (LD50) in data set [1] turned out to be 15 mg/kg. Also, the results for the Ki in data set [2] and in data set [3] were 1000 nM and 80 nM, respectively.
